Laboratory results: patent US9265771B2, “Method for treating Lyme disease” (Zoetis Services LLC, priority 2012, dated 2016)

Legend:
[1] = following subcutaneous injection; cited from earlier work
B. burgdorferi = assay: Study A: Quantitative C6 (QC6) antibody ELISA in tick-infected dogs; type: in vivo, beagle dogs; conditions: Convenia Rx Days 83 and 97
Source text: Three outer surface proteins (Osp) on B. burgdorferi are important for diagnosis and prevention, and are expressed by the organism in response to its local environment. […] OspF is another surface protein that is generally observed in late-stage disease. The C in […] refers to a 25-amino acid, C6 peptide in the sixth invariable region of an outer membrane lipoprotein (VIsE). Antibody against C6 is highly accurate as a serologic diagnosis of Lyme disease independent of a subject's (e.g., canine) vaccination status. Further, the generation of C6 antibodies implies an active infection with viable spirochetes. Serological methods for detecting B. burgdorfer/Lyme disease were conducted using the IDEXX qualitative SNAP-4Dx ELISA and the Quantitative C6 (Quant C6 or QC6) diagnostic kits, which are enzyme linked immunosorbent assays against the previously described 25-amino-acid C6 peptide. QC6 ELISA data, units/mL, are useful for guidance in initiating and evaluating response to therapy (See Levy S A, O'Connor T P, Hanscom J L, Shields P, et al. Quantitative measurement of a C6 antibody following antibiotic treatment of Borrelia burgdorferi antibody-positive, nonclinical dogs. Clin Vacc Immunol 2008; 15(1):115-119 and Littman M P, Goldstein R E, Labato M A, et al. ACVIM Small Animal Concensus Statement on Lyme Disease in Dogs: Diagnosis, Treatment and Prevention. J Vet Intern Med 2006; 20: 422-434).
Twenty-three adult female beagle dogs were used in this study; all were sero-negative for Borrelia, not vaccinated with any Borrelia spp vaccines, and acclimated at the study facility for seven days prior to any study activities. The study was conducted under National Research Council guidelines (1996. Dogs were randomized to a non-infected control (n=7 dogs) group, or infected groups (n=8 dogs/region) using ticks from two regions of the USA, Region A (New England (NE), i.e., Rhode Island) and Region B (Midwest (MW), i.e., Wisconsin). Dogs were infected on Day 0 with up to 30 Ixodes scapularis ticks per dog. Tick attachment was monitored daily and after nine days, remaining ticks were harvested and all dogs were treated with two topical applications of an approved acaricide observing a 30-day interval between applications. Dogs were monitored 21-days post-challenge for pyrexia, and the entire post-challenge period for clinical signs of Lyme disease (lameness, ataxia, anorexia, lymphadenopathy and depression).
Blood was collected from each dog weekly to Day 28, then every two-weeks for the remainder of the study (166 days). Serum antibodies to Borrelia were assayed using SNAP-4Dx and QC6 ELISA. Two skin punch biopsies were collected near tick attachment sites from each dog every 28 days post-challenge for bacterial culture.
Comparisons included serology, skin culture results and joint pathology.

## CO/N=C(\C(=O)N[C@@H]1C(=O)N2C(C(=O)[O-])=C([C@@H]3CCCO3)CS[C@H]12)c1csc(N)n1.[Na+] [Convenia, (6R,7R)-7-[[(2Z)-(2-amino-4-thiazolyl)(methoxyimino)acetyl]-amino]-8-oxo-3-[(2S)-tetrahydro-2-furanyl]-5-thia-1-azabicyclo[4.2.0]oct-2-ene-2-carboxylic acid, monosodium salt]
[1]
  Absorption: rapidly and completely absorbed
B. burgdorferi; Group 4 Control (no ticks), Day 0
  Mean QC6 Antibody Levels: 0 U/mL
B. burgdorferi; Group 4 Control (no ticks), Day 7
  Mean QC6 Antibody Levels: 0 U/mL
B. burgdorferi; Group 4 Control (no ticks), Day 20
  Mean QC6 Antibody Levels: 0 U/mL
B. burgdorferi; Group 4 Control (no ticks), Day 27
  Mean QC6 Antibody Levels: 0 U/mL
B. burgdorferi; Group 4 Control (no ticks), Day 41
  Mean QC6 Antibody Levels: 0 U/mL
B. burgdorferi; Group 4 Control (no ticks), Day 54
  Mean QC6 Antibody Levels: 0 U/mL
B. burgdorferi; Group 4 Control (no ticks), Day 69
  Mean QC6 Antibody Levels: 0 U/mL
B. burgdorferi; Group 4 Control (no ticks), Day 83
  Mean QC6 Antibody Levels: 0 U/mL
B. burgdorferi; Group 4 Control (no ticks), Day 97
  Mean QC6 Antibody Levels: 0 U/mL
B. burgdorferi; Group 4 Control (no ticks), Day 111
  Mean QC6 Antibody Levels: 0 U/mL
B. burgdorferi; Group 4 Control (no ticks), Day 125
  Mean QC6 Antibody Levels: 0 U/mL
B. burgdorferi; Group 4 Control (no ticks), Day 138
  Mean QC6 Antibody Levels: 0 U/mL
B. burgdorferi; Group 4 Control (no ticks), Day 153
  Mean QC6 Antibody Levels: 0 U/mL
B. burgdorferi; Group 4 Control (no ticks), Day 166
  Mean QC6 Antibody Levels: 0 U/mL
B. burgdorferi; Group 5 NE Ticks, Day 0 (infestation)
  Mean QC6 Antibody Levels: 0 U/mL
B. burgdorferi; Group 5 NE Ticks, Day 7 (pre-treatment)
  Mean QC6 Antibody Levels: 0 U/mL
B. burgdorferi; Group 5 NE Ticks, Day 20 (pre-treatment)
  Mean QC6 Antibody Levels: 148.5 U/mL
B. burgdorferi; Group 5 NE Ticks, Day 27 (pre-treatment)
  Mean QC6 Antibody Levels: 148.75 U/mL
B. burgdorferi; Group 5 NE Ticks, Day 41 (pre-treatment)
  Mean QC6 Antibody Levels: 239.25 U/mL
B. burgdorferi; Group 5 NE Ticks, Day 54 (pre-treatment)
  Mean QC6 Antibody Levels: 209.5 U/mL
B. burgdorferi; Group 5 NE Ticks, Day 69 (pre-treatment)
  Mean QC6 Antibody Levels: 270.75 U/mL
B. burgdorferi; Group 5 NE Ticks, Day 83 (first dose)
  Mean QC6 Antibody Levels: 122 U/mL
B. burgdorferi; Group 5 NE Ticks, Day 97 (second dose)
  Mean QC6 Antibody Levels: 99.5 U/mL
B. burgdorferi; Group 5 NE Ticks, Day 111
  Mean QC6 Antibody Levels: 48.25 U/mL
B. burgdorferi; Group 5 NE Ticks, Day 125
  Mean QC6 Antibody Levels: 20.5 U/mL
B. burgdorferi; Group 5 NE Ticks, Day 138
  Mean QC6 Antibody Levels: 7.75 U/mL
B. burgdorferi; Group 5 NE Ticks, Day 153
  Mean QC6 Antibody Levels: 4.25 U/mL
B. burgdorferi; Group 5 NE Ticks, Day 166
  Mean QC6 Antibody Levels: 3 U/mL
B. burgdorferi; Group 6 MW Ticks, Day 0 (infestation)
  Mean QC6 Antibody Levels: 0 U/mL
B. burgdorferi; Group 6 MW Ticks, Day 7 (pre-treatment)
  Mean QC6 Antibody Levels: 0 U/mL
B. burgdorferi; Group 6 MW Ticks, Day 20 (pre-treatment)
  Mean QC6 Antibody Levels: 66.5 U/mL
B. burgdorferi; Group 6 MW Ticks, Day 27 (pre-treatment)
  Mean QC6 Antibody Levels: 155 U/mL
B. burgdorferi; Group 6 MW Ticks, Day 41 (pre-treatment)
  Mean QC6 Antibody Levels: 147.25 U/mL
B. burgdorferi; Group 6 MW Ticks, Day 54 (pre-treatment)
  Mean QC6 Antibody Levels: 149.25 U/mL
B. burgdorferi; Group 6 MW Ticks, Day 69 (pre-treatment)
  Mean QC6 Antibody Levels: 110.75 U/mL
B. burgdorferi; Group 6 MW Ticks, Day 83 (first dose)
  Mean QC6 Antibody Levels: 93.75 U/mL
B. burgdorferi; Group 6 MW Ticks, Day 97 (second dose)
  Mean QC6 Antibody Levels: 74.25 U/mL
B. burgdorferi; Group 6 MW Ticks, Day 111
  Mean QC6 Antibody Levels: 51.5 U/mL
B. burgdorferi; Group 6 MW Ticks, Day 125
  Mean QC6 Antibody Levels: 29 U/mL
B. burgdorferi; Group 6 MW Ticks, Day 138
  Mean QC6 Antibody Levels: 22 U/mL
B. burgdorferi; Group 6 MW Ticks, Day 153
  Mean QC6 Antibody Levels: 8.25 U/mL
B. burgdorferi; Group 6 MW Ticks, Day 166
  Mean QC6 Antibody Levels: 6.5 U/mL
